System: L. infantum MHOM/MA/67/ITMAP-263 promastigotes
Assay: Resazurin-based assay against L. infantum promastigotes
Assay type: cell-based, Leishmania infantum
Conditions: Leishmania infantum, 72 h, dose-response
Protocol: The antiparasitic activity of compounds 2c–g, 3a, 5a and 7 was evaluated at a single concentration of 20 μM, against Trypanosoma brucei (T. brucei) and Leishmania infantum (L. infantum) promastigotes. The results are shown in Table 9 together with the cytotoxicity data (CC50) in THP-1–derived macrophages cells.
L. infantum MHOM/MA/67/ITMAP-263 promastigotes forms were grown at 27 °C, in complete RPMI-1640 medium supplemented with 10% heat-inactivated Fetal Bovine Serum (FBS), 2 mM L-glutamine, 100 UI/mL penicillin/streptomycin, 20 mM HEPES. Parasites maintenance was performed in T25 non-ventilated flasks by subpassage at a concentration of 1 × 10^6/mL every 5 days on T25 non-ventilated flasks.
The compounds’ efficacy against L. infantum promastigotes was evaluated using a resazurin-based assay. Parasites were added to 100 µL of serial dilutions of compounds in supplemented complete medium at a cell density of 5 × 10^5/mL. As a quality control, a dose–response curve to the antileishmanial drug miltefosine was included in all the assays. The final volume of the assay was 200 µL/well. Each condition was carried out in duplicate. Following 72 h of incubation at the specific conditions for L. infantum, 20 µL of a 0.5 mM resazurin solution was added, and the plates were incubated for a further 4 h under the same conditions. The methodology to obtain the results was the same described in Section 3.2.2. for T. brucei.

With `COC(=O)c1sc2nccnc2c1C#Cc1ccccn1` [Compound 2f, Methyl 7-(pyridin-2-ylethynyl)thieno[2,3-b]pyrazine-6-carboxylate] the IC50 was 16 µM.

— paper PMC12073635, “Synthesis of Tricyclic and Tetracyclic Lactone Derivatives of Thieno[2,3-b]pyrazine or Thieno[2,3-b]quinoline: Preliminary Antitumor and Antiparasitic Activity Evaluation” (Molecules, 2025)
